From patent US20250188082A1, “Use of Hypoxanthine Compound In Preparation of Drug For Treating Pulmonary Fibrosis” (Sichuan Yiasuo Pharmaceutical Technology Co., Ltd., priority 2022, published 2025) come the findings set out here.

Holding throughout (type): in vivo, C57BL/6 mice
The subject of test [1] is coronavirus-induced pulmonary fibrosis model (HcoV-OC43). Description: Coronavirus-induced pulmonary fibrosis model. The note with it: 120 mg/kg/d intragastric, 14 days; for Ashcroft scores: coronavirus HcoV-OC43 + bleomycin, lung tissue HE; for IL-1β / IL-6 / NF-κB / TNF-α: serum, HcoV-OC43 + bleomycin, from two weeks after model. The text has this:
Experimental method: an in-vivo coronavirus-induced pulmonary fibrosis model mice was established: C57BL/6 mice (with weights being 22-25 g) were randomly and evenly divided into a plurality of groups, including blank control group, model group, Nintedanib positive control group, hypoxanthine analogue A group, hypoxanthine analogue B group, hypoxanthine analogue C group, compound 1 group, compound 2 group . . . compound 12 group, with 9 mice in each group. On Day 1, the mice in the blank control group were instilled with normal saline nasally, and the mice in other groups were all infected with HcoV-OC43 coronavirus strains (30 μL) through nasal instillation. On Day 2, the mice received 5 mg/kg bleomycin through tracheas to induce their pulmonary fibrosis. After the model was established for two weeks, the mice in each group were intragastrically administrated for intervention for consecutive 14 days; the mice in blank control group and model group intragastrically received the same dosage of the normal saline as those in drug groups; the mice in Nintedanib positive control group received Nintedanib (120 mg/kg); the mice in hypoxanthine analogue A group, hypoxanthine analogue B group and hypoxanthine analogue C group respectively received hypoxanthine analogue A (120 mg/kg/d), hypoxanthine analogue B (120 mg/kg/d) and hypoxanthine analogue C (120 mg/kg/d); and the mice in compound 1 group, compound 2 group . . . compound 12 group respectively received compound 1 (120 mg/kg/d), compound 2 (120 mg/kg/d) . . . compound 12 (120 mg/kg/d) prepared in example 1. After administration for consecutive 14 days, the mice were observed every day, and their weights and death conditions were recorded. After administration, blood was taken from eyeballs for immediately detecting the expression levels of NF-κB, TNF-α, IL-1 and IL-6 in serum, and lung tissues were taken for HE detection and Ashcroft scoring.

Test [2] concerns bleomycin-induced pulmonary fibrosis model. In words: Early pulmonary fibrosis: bleomycin-induced model, dosing from one week after modelling. The note with it: early pulmonary fibrosis, 120 mg/kg/d intragastric, 14 days, from one week after model; for Leucocyte / Lymphocyte / Neutrophil: blood, Day 15, twice every day; for Ashcroft scores: lung tissue HE staining.
The subject of test [3] is novel coronavirus-induced pulmonary fibrosis model (COVID-19 novel coronavirus strains). Description: Novel coronavirus-induced pulmonary fibrosis model. The note with it: 120 mg/kg/d intragastric, 14 days; for Ashcroft scores: novel coronavirus + bleomycin, lung tissue HE; for IL-1β / IL-6 / NF-κB / TNF-α: serum, COVID-19 novel coronavirus + bleomycin, from two weeks after model. The text has this: Experimental method: an in-vivo novel coronavirus-induced pulmonary fibrosis model was established: C57BL/6 mice (with weights being 22-25 g) were randomly and evenly divided into a plurality of groups, including blank control group, model group, Nintedanib positive control group, hypoxanthine analogue A group, hypoxanthine analogue B group, hypoxanthine analogue C group, compound 1 group, a compound 2 group . . . compound 12 group, with 9 mice in each group. On Day 1, the mice in blank control group were instilled with normal saline nasally, and the mice in other groups were all infected with COVID-19 novel coronavirus strains (30 μL) through nasal instillation. On Day 2, the mice received 5 mg/kg bleomycin through tracheas to induce their pulmonary fibrosis. After the model was established for two weeks, the mice in each group were intragastrically administrated for intervention for consecutive 14 days; the mice in blank control group and model group intragastrically received the same dosage of normal saline as those in drug groups; the mice in Nintedanib positive control group received Nintedanib (120 mg/kg); the mice in hypoxanthine analogue A group, hypoxanthine analogue B group and hypoxanthine analogue C group respectively received hypoxanthine analogue A (120 mg/kg/d), hypoxanthine analogue B (120 mg/kg/d) and hypoxanthine analogue C (120 mg/kg/d); and the mice in compound 1 group, compound 2 group . . . compound 12 group respectively received compound 1 (120 mg/kg/d), compound 2 (120 mg/kg/d) . . . compound 12 (120 mg/kg/d) prepared in example 1. After administration for consecutive 14 days, the mice were observed every day, and their weights and death conditions were recorded. After administration, blood was taken from eyeballs for immediately detecting the expression levels of NF-κB, TNF-α, IL-1 and IL-6 in serum, and lung tissues were taken for HE detection and Ashcroft scoring.

Test [4] concerns influenza B virus-induced pulmonary fibrosis model (influenza B (H7N9) virus). The conditions noted are these: 120 mg/kg/d intragastric, 14 days; for Ashcroft scores: influenza B virus + bleomycin, lung tissue HE; for IL-1β / NF-κB / TNF-α / IL-6: serum, from two weeks after model; for IL-1β / NF-κB / TNF-α: influenza B (H7N9) + bleomycin; for IL-6: influenza B + bleomycin.
In test [5] the test system is bleomycin-induced pulmonary fibrosis model. Description: Comparison with comparative drugs: bleomycin-induced model, hydroxyproline and TGF-β. The conditions noted are these: 120 mg/kg/d intragastric, twice every day, 14 days, from two weeks after model; Day 15.

With `CC(C)n1cnc2nc[nH]c(=O)c21` [Compound 6], in test [1], the Ashcroft scores amounted to 1.30, the IL-1β came to 39.5 pg/mL, the IL-6 stood at 65.7 pg/mL and the NF-κB amounted to 29.3 pg/mL. In test [1], the TNF-α is recorded as 56.2 pg/mL. Besides, in test [2], the Leucocyte is 4.25 10^9/L, the Lymphocyte is recorded as 5.49 10^9/L, the Neutrophil was 1.19 10^9/L and the Ashcroft scores is 1.08. In test [3], the Ashcroft scores turned out to be 1.34, the IL-1β stood at 38.7 pg/mL, the IL-6 was found to be 67.1 pg/mL and the NF-κB was 21.2 pg/mL. For the same compound, the TNF-α in test [3] is 68.3 pg/mL. Further, in test [4], the Ashcroft scores was determined as 1.14, the IL-1β worked out at 27.2 pg/mL, the NF-κB is reported as 32.4 pg/mL and the TNF-α is on record as 75.3 pg/mL. Moreover, in test [4], the IL-6 is given as 65.6 pg/mL. In test [5], the “Hydroxyproline in bronchoalveolar lavage fluids” value amounted to 0.68 ± 0.07 µg/mg, the “Hydroxyproline in lung tissues” value came out at 1.46 ± 0.07 µg/mg, the “TGF-β in bronchoalveolar lavage fluids” value was determined as 3.91 ± 0.18 µg/L and the “TGF-β in lung tissues” value turned out to be 24.18 ± 2.14 µg/L.
Regarding `COc1ncnc2c1ncn2C(C)C` [Compound 7], in test [1], the Ashcroft scores stood at 1.49, the IL-1β amounted to 33.2 pg/mL, the IL-6 amounted to 64.3 pg/mL and the NF-κB was found to be 25.6 pg/mL. The TNF-α in test [1] is 55.9 pg/mL. Besides, in test [2] (120 mg/kg/day), the Leucocyte was 4.19 10^9/L, the Lymphocyte is reported as 5.44 10^9/L, the Neutrophil is recorded as 1.23 10^9/L and the Ashcroft scores came out at 1.11. Further, in test [3], the Ashcroft scores came out at 1.15, the IL-1β stood at 39.9 pg/mL, the IL-6 was 66.4 pg/mL and the NF-κB came to 24.6 pg/mL. Also, in test [3], the TNF-α was 67.5 pg/mL. Also, in test [4], the Ashcroft scores worked out at 1.20, the IL-1β is 27.9 pg/mL, the NF-κB turned out to be 33.4 pg/mL and the TNF-α worked out at 74.1 pg/mL. Besides, in test [4], the IL-6 worked out at 70.3 pg/mL. Also, in test [5], the “Hydroxyproline in bronchoalveolar lavage fluids” value was 0.69 ± 0.08 µg/mg, the “Hydroxyproline in lung tissues” value is 1.42 ± 0.14 µg/mg, the “TGF-β in bronchoalveolar lavage fluids” value stood at 4.02 ± 0.15 µg/L and the “TGF-β in lung tissues” value was found to be 25.15 ± 2.53 µg/L.
As to `CCOc1ncnc2c1ncn2C(C)C` [Compound 8], in test [1], the Ashcroft scores is recorded as 1.29, the IL-1β was determined as 36.6 pg/mL, the IL-6 was 66.7 pg/mL and the NF-κB came to 28.3 pg/mL. Further, in test [1], the TNF-α was 56.1 pg/mL. Besides, in test [2], the Leucocyte is listed as 4.27 10^9/L, the Lymphocyte was 5.31 10^9/L, the Neutrophil is listed as 1.26 10^9/L and the Ashcroft scores stood at 1.09. Moreover, in test [3], the Ashcroft scores worked out at 1.24, the IL-1β is recorded as 38.4 pg/mL, the IL-6 is 68.2 pg/mL and the NF-κB was determined as 23.4 pg/mL. In test [3], the TNF-α stood at 66.7 pg/mL. In addition, in test [4], the Ashcroft scores was determined as 1.16, the IL-1β was found to be 27.1 pg/mL, the NF-κB came to 31.9 pg/mL and the TNF-α is on record as 73.5 pg/mL. For the same compound, in test [4], the IL-6 was 66.5 pg/mL. Further, in test [5], the “Hydroxyproline in bronchoalveolar lavage fluids” value turned out to be 0.72 ± 0.06 µg/mg, the “Hydroxyproline in lung tissues” value was 1.47 ± 0.10 µg/mg, the “TGF-β in bronchoalveolar lavage fluids” value was determined as 4.06 ± 0.18 µg/L and the “TGF-β in lung tissues” value is 25.17 ± 2.35 µg/L.
